# Data published in the supplement of paper PMC10307832.
# Key:
# Experiment in all cases: relative viability (nuclei count vs DMSO), 5 days (fraction); higher = more cells survive
# 201T = test system: 201T
# In short: (§1)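 Lung cancer cell lines in 1536-well plates got either a single drug or a fixed anchor-drug dose together with five library-drug doses (not always all listed) in √10 steps, by pin tool, on the day after seeding. Nuclei were counted after 5 days, and relative viability is the treated-to-vehicle ratio of nuclei counts. Values are medians of duplicate plates.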
# BEN = test system: BEN
# In short: as §1
# EMC-BAC-2 = test system: EMC-BAC-2
# In short: as §1
# HARA = test system: HARA
# In short: as §1
# HCC-44 = test system: HCC-44
# In short: as §1
# LCLC-103H = test system: LCLC-103H
# In short: as §1
# LOU-NH91 = test system: LOU-NH91
# In short: as §1
# NCI-H1993 = test system: NCI-H1993
# In short: as §1
# NCI-H2023 = test system: NCI-H2023
# In short: as §1
# NCI-H2087 = test system: NCI-H2087
# In short: as §1
# NCI-H2126 = test system: NCI-H2126
# In short: as §1
# NCI-H2347 = test system: NCI-H2347
# In short: as §1
# NCI-H23 = test system: NCI-H23
# In short: as §1
# NCI-H3122 = test system: NCI-H3122
# In short: as §1
# NCI-H441 = test system: NCI-H441
# In short: as §1
# NCI-H596 = test system: NCI-H596
# In short: as §1
# NCI-H647 = test system: NCI-H647
# In short: as §1
# NCI-H650 = test system: NCI-H650
# In short: as §1
# NCI-H727 = test system: NCI-H727
# In short: as §1
# NCI-H838 = test system: NCI-H838
# In short: as §1
structure (smiles),measurement,setting,value
COc1cc2nccc(Oc3ccc(NC(=O)Nc4cc(C)on4)c(Cl)c3)c2cc1OC [Tivozanib] + CC(C)C[C@H](NC(=O)[C@H](Cc1ccccc1)NC(=O)c1cnccn1)B(O)O [Bortezomib] (partner 0.002 µM),relative viability,201T; first compound 0.005 µM,1.11
same,relative viability,201T; first compound 0.01581 µM,1.08
same,relative viability,201T; first compound 0.05 µM,1.06
same,relative viability,201T; first compound 0.1581 µM,1.07
same,relative viability,201T; first compound 0.5 µM,1.11
same,relative viability,BEN; first compound 0.005 µM,0.703
same,relative viability,BEN; first compound 0.01581 µM,0.847
same,relative viability,BEN; first compound 0.05 µM,0.873
same,relative viability,BEN; first compound 0.5 µM,0.86
same,relative viability,EMC-BAC-2; first compound 0.005 µM,1.05
same,relative viability,EMC-BAC-2; first compound 0.01581 µM,1.07
same,relative viability,EMC-BAC-2; first compound 0.05 µM,1.1
same,relative viability,EMC-BAC-2; first compound 0.1581 µM,0.769
same,relative viability,EMC-BAC-2; first compound 0.5 µM,1.08
same,relative viability,HARA; first compound 0.005 µM,1.03
same,relative viability,HARA; first compound 0.01581 µM,1.18
same,relative viability,HARA; first compound 0.05 µM,1.08
same,relative viability,HARA; first compound 0.1581 µM,1.27
same,relative viability,HARA; first compound 0.5 µM,1.14
same,relative viability,HCC-44; first compound 0.005 µM,0.895
same,relative viability,HCC-44; first compound 0.01581 µM,0.809
same,relative viability,HCC-44; first compound 0.05 µM,0.92
same,relative viability,HCC-44; first compound 0.1581 µM,0.864
same,relative viability,HCC-44; first compound 0.5 µM,0.833
same,relative viability,LCLC-103H; first compound 0.005 µM,0.964
same,relative viability,LCLC-103H; first compound 0.01581 µM,1.01
same,relative viability,LCLC-103H; first compound 0.05 µM,1.21
same,relative viability,LCLC-103H; first compound 0.1581 µM,1.04
same,relative viability,LCLC-103H; first compound 0.5 µM,0.967
same,relative viability,LOU-NH91; first compound 0.005 µM,0.5
same,relative viability,LOU-NH91; first compound 0.01581 µM,0.489
same,relative viability,LOU-NH91; first compound 0.05 µM,0.722
same,relative viability,LOU-NH91; first compound 0.1581 µM,0.561
same,relative viability,LOU-NH91; first compound 0.5 µM,0.499
same,relative viability,NCI-H1993; first compound 0.005 µM,0.981
same,relative viability,NCI-H1993; first compound 0.01581 µM,1.02
same,relative viability,NCI-H1993; first compound 0.05 µM,1.39
same,relative viability,NCI-H1993; first compound 0.1581 µM,0.647
same,relative viability,NCI-H1993; first compound 0.5 µM,1.13
same,relative viability,NCI-H2023; first compound 0.005 µM,0.909
same,relative viability,NCI-H2023; first compound 0.01581 µM,1.07
same,relative viability,NCI-H2023; first compound 0.05 µM,1
same,relative viability,NCI-H2023; first compound 0.1581 µM,0.853
same,relative viability,NCI-H2023; first compound 0.5 µM,0.965
same,relative viability,NCI-H2087; first compound 0.005 µM,0.644
same,relative viability,NCI-H2087; first compound 0.01581 µM,0.919
same,relative viability,NCI-H2087; first compound 0.05 µM,0.842
same,relative viability,NCI-H2087; first compound 0.1581 µM,0.77
same,relative viability,NCI-H2087; first compound 0.5 µM,0.739
same,relative viability,NCI-H2126; first compound 0.005 µM,1.1
same,relative viability,NCI-H2126; first compound 0.01581 µM,1.07
same,relative viability,NCI-H2126; first compound 0.05 µM,1.14
same,relative viability,NCI-H2126; first compound 0.1581 µM,0.811
same,relative viability,NCI-H2126; first compound 0.5 µM,1.11
same,relative viability,NCI-H2347; first compound 0.005 µM,0.875
same,relative viability,NCI-H2347; first compound 0.01581 µM,0.818
same,relative viability,NCI-H2347; first compound 0.05 µM,1.18
same,relative viability,NCI-H2347; first compound 0.5 µM,0.986
same,relative viability,NCI-H23; first compound 0.005 µM,0.946
same,relative viability,NCI-H23; first compound 0.01581 µM,0.975
same,relative viability,NCI-H23; first compound 0.05 µM,1.1
same,relative viability,NCI-H23; first compound 0.1581 µM,0.785
same,relative viability,NCI-H23; first compound 0.5 µM,0.839
same,relative viability,NCI-H3122; first compound 0.005 µM,0.99
same,relative viability,NCI-H3122; first compound 0.01581 µM,1.02
same,relative viability,NCI-H3122; first compound 0.05 µM,1.08
same,relative viability,NCI-H3122; first compound 0.1581 µM,1.12
same,relative viability,NCI-H3122; first compound 0.5 µM,1.04
same,relative viability,NCI-H441; first compound 0.005 µM,0.43
same,relative viability,NCI-H441; first compound 0.01581 µM,0.332
same,relative viability,NCI-H441; first compound 0.05 µM,0.332
same,relative viability,NCI-H441; first compound 0.1581 µM,0.453
same,relative viability,NCI-H441; first compound 0.5 µM,0.34
same,relative viability,NCI-H596; first compound 0.005 µM,1.03
same,relative viability,NCI-H596; first compound 0.01581 µM,0.887
same,relative viability,NCI-H596; first compound 0.05 µM,0.918
same,relative viability,NCI-H596; first compound 0.1581 µM,0.993
same,relative viability,NCI-H596; first compound 0.5 µM,1.08
same,relative viability,NCI-H647; first compound 0.005 µM,0.953
same,relative viability,NCI-H647; first compound 0.01581 µM,0.886
same,relative viability,NCI-H647; first compound 0.05 µM,1.05
same,relative viability,NCI-H647; first compound 0.1581 µM,0.941
same,relative viability,NCI-H647; first compound 0.5 µM,0.957
same,relative viability,NCI-H650; first compound 0.005 µM,0.447
same,relative viability,NCI-H650; first compound 0.01581 µM,0.956
same,relative viability,NCI-H650; first compound 0.05 µM,0.833
same,relative viability,NCI-H650; first compound 0.1581 µM,0.579
same,relative viability,NCI-H650; first compound 0.5 µM,0.497
same,relative viability,NCI-H727; first compound 0.005 µM,0.701
same,relative viability,NCI-H727; first compound 0.01581 µM,0.818
same,relative viability,NCI-H727; first compound 0.05 µM,0.772
same,relative viability,NCI-H727; first compound 0.5 µM,0.873
same,relative viability,NCI-H838; first compound 0.005 µM,0.939
same,relative viability,NCI-H838; first compound 0.01581 µM,0.877
same,relative viability,NCI-H838; first compound 0.05 µM,0.924
same,relative viability,NCI-H838; first compound 0.5 µM,0.723
